Data published in ChEMBL document CHEMBL4411307, “N,N'-diaryl-bishydrazones in a biphenyl platform: Broad spectrum antifungal agents” (Eur J Med Chem, 2019).
Values after ≈ are worked out from the molar mass of the structure shown. Active and inactive are the calls of the source. The rule behind the calls is not given here.

Experiments:
[1] = Selectivity index, ratio of CC50 for human A549 cells to MIC for fluconazole/ITC-susceptible Candida albicans ATCC MYA-2310; assay type: toxicity; settings: read-out: Selectivity Index
Aspergillus flavus = experiment: Antifungal activity against Aspergillus flavus ATCC MYA-3631 measured after 48 hrs by CLSI M38-A2 protocol based method; assay type: functional; settings: ATCC MYA-3631, 48 h
[2] = molecular target: Voltage-gated inwardly rectifying potassium channel KCNH2 (Homo sapiens, UniProt Q12809); experiment: Inhibition of [3H]-dofetilide binding to human ERG expressed in HEK293 cell membranes measured after 1 hr by liquid scintillation counting method
[3] = Selectivity index, ratio of CC50 for human A549 cells to MIC for fluconazole/ITC-resistant Candida albicans ATCC MYA-1237; assay type: toxicity; settings: read-out: Selectivity Index
Aspergillus terreus = experiment: Antifungal activity against Aspergillus terreus ATCC MYA-3633 measured after 48 hrs by CLSI M38-A2 protocol based method; assay type: functional; settings: ATCC MYA-3633, 48 h
[4] = Selectivity index, ratio of CC50 for human A549 cells to MIC for fluconazole/ITC-resistant Candida albicans ATCC 10231; assay type: toxicity; settings: read-out: Selectivity Index
[5] = Hemolytic activity in mouse RBC at […] after 1 hr relative to control; assay type: ADME, cell-based, Erythrocyte; settings: red blood cells (erythrocytes), read-out: Activity; also: tested at 0.48 µg/mL
Candida parapsilosis = experiment: Antifungal activity against Candida parapsilosis ATCC 22019 measured after 48 hrs by CLSI M27-A3 protocol based method; assay type: functional; settings: Lodderomyces parapsilosis, ATCC 22019, 48 h
[6] = Selectivity index, ratio of CC50 for human A549 cells to MIC for Candida glabrata ATCC 2001; assay type: toxicity; settings: read-out: Selectivity Index
[7] = Selectivity index, ratio of compound concentration showing <20 to <30% hemolysis in mouse RBC to MIC for fluconazole/ITC-resistant Candida albicans ATCC 64124; assay type: toxicity; settings: red blood cells (erythrocytes), read-out: Selectivity Index
[8] = Selectivity index, ratio of compound concentration showing <20 to <30% hemolysis in mouse RBC to MIC for Aspergillus terreus ATCC MYA-3633; assay type: toxicity; settings: mouse red blood cells (RBC), read-out: Selectivity Index
A549 = experiment: Cytotoxicity against human A549 cells after 24 hrs by resazurin based assay; assay type: cell-based; settings: a549, 24 h
Candida albicans [9] = experiment: Antifungal activity against fluconazole/ITC-resistant Candida albicans ATCC 64124 measured after 48 hrs by CLSI M27-A3 protocol based method; assay type: functional; settings: ATCC 64124, 48 h
Aspergillus nidulans = experiment: Antifungal activity against Aspergillus nidulans ATCC 38163 measured after 48 hrs by CLSI M38-A2 protocol based method; assay type: functional; settings: ATCC 38163, 48 h
[10] = Hemolytic activity in mouse RBC at 3.9 ug/ml after 1 hr relative to control; assay type: ADME, cell-based, Erythrocyte; settings: red blood cells (erythrocytes), read-out: Activity
[11] = Selectivity index, ratio of compound concentration showing <20 to <30% hemolysis in mouse RBC to MIC for fluconazole/ITC-susceptible Candida albicans ATCC MYA-2876; assay type: toxicity; settings: red blood cells (erythrocytes), read-out: Selectivity Index
BEAS-2B = experiment: Cytotoxicity against human BEAS2B cells after 24 hrs by resazurin based assay; assay type: cell-based
Candida albicans [12] = experiment: Antifungal activity against fluconazole/ITC-resistant Candida albicans ATCC 10231 measured after 48 hrs by CLSI M27-A3 protocol based method; assay type: functional; settings: ATCC 10231, 48 h
[13] = Selectivity index, ratio of CC50 for human A549 cells to MIC for Candida parapsilosis ATCC 22019; assay type: toxicity; settings: read-out: Selectivity Index
[14] = Selectivity index, ratio of CC50 for human A549 cells to MIC for Candida krusei ATCC 6258; assay type: toxicity; settings: read-out: Selectivity Index
[15] = Selectivity index, ratio of CC50 for human A549 cells to MIC for fluconazole/ITC-resistant Candida albicans ATCC 90819; assay type: toxicity; settings: read-out: Selectivity Index
[16] = Hemolytic activity in mouse RBC at 1.95 ug/ml after 1 hr relative to control; assay type: ADME, cell-based, Erythrocyte; settings: red blood cells (erythrocytes), read-out: Activity
[17] = Selectivity index, ratio of compound concentration showing <20 to <30% hemolysis in mouse RBC to MIC for fluconazole/ITC-resistant Candida albicans ATCC 10231; assay type: toxicity; settings: red blood cells (erythrocytes), read-out: Selectivity Index
Pichia kudriavzevii = experiment: Antifungal activity against Candida krusei ATCC 6258 measured after 48 hrs by CLSI M27-A3 protocol based method; assay type: functional; settings: ATCC 6258, 48 h
[18] = Selectivity index, ratio of compound concentration showing <20 to <30% hemolysis in mouse RBC to MIC for Candida krusei ATCC 6258; assay type: toxicity; settings: mouse red blood cells (RBC), read-out: Selectivity Index
Enterococcus = experiment: Antibacterial activity against vancomycin-resistant Enterococcus; assay type: functional, organism-based
Nakaseomyces glabratus = experiment: Antifungal activity against Candida glabrata ATCC 2001 measured after 48 hrs by CLSI M27-A3 protocol based method; assay type: functional; settings: CBS 138, 48 h
Candida albicans [19] = experiment: Antifungal activity against fluconazole/ITC-resistant Candida albicans ATCC 90819 measured after 48 hrs by CLSI M27-A3 protocol based method; assay type: functional; settings: ATCC 90819, 48 h
[20] = Selectivity index, ratio of CC50 for human A549 cells to MIC for Aspergillus nidulans ATCC 38163; assay type: toxicity; settings: read-out: Selectivity Index
[21] = Selectivity index, ratio of compound concentration showing <20 to <30% hemolysis in mouse RBC to MIC for fluconazole/ITC-resistant Candida albicans ATCC MYA-1237; assay type: toxicity; settings: mouse red blood cells (RBC), read-out: Selectivity Index
[22] = Selectivity index, ratio of CC50 for human A549 cells to MIC for Aspergillus flavus ATCC MYA-3631; assay type: toxicity; settings: read-out: Selectivity Index
[23] = Selectivity index, ratio of compound concentration showing <20 to <30% hemolysis in mouse RBC to MIC for fluconazole/ITC-resistant Candida albicans ATCC 90819; assay type: toxicity; settings: red blood cells (erythrocytes), read-out: Selectivity Index
Candida albicans [24] = experiment: Antifungal activity against fluconazole/ITC-susceptible Candida albicans ATCC MYA-2876 measured after 48 hrs by CLSI M27-A3 protocol based method; assay type: functional; settings: ATCC MYA-2876, 48 h
[25] = Selectivity index, ratio of compound concentration showing <20 to <30% hemolysis in mouse RBC to MIC for Aspergillus nidulans ATCC 38163; assay type: toxicity; settings: mouse red blood cells (RBC), read-out: Selectivity Index
[26] = Hemolytic activity in mouse RBC at 7.8 ug/ml after 1 hr relative to control; assay type: ADME, cell-based, Erythrocyte; settings: red blood cells (erythrocytes), read-out: Activity
Candida albicans [27] = experiment: Antifungal activity against fluconazole/ITC-resistant Candida albicans ATCC MYA-1003 measured after 48 hrs by CLSI M27-A3 protocol based method; assay type: functional; settings: ATCC MYA-1003, 48 h
[28] = Selectivity index, ratio of compound concentration showing <20 to <30% hemolysis in mouse RBC to MIC for Aspergillus flavus ATCC MYA-3631; assay type: toxicity; settings: mouse red blood cells (RBC), read-out: Selectivity Index
Candida albicans [29] = experiment: Antifungal activity against fluconazole/ITC-resistant Candida albicans ATCC MYA-1237 measured after 48 hrs by CLSI M27-A3 protocol based method; assay type: functional; settings: ATCC MYA-1237, 48 h
[30] = Selectivity index, ratio of CC50 for human A549 cells to MIC for fluconazole/ITC-resistant Candida albicans ATCC MYA-1003; assay type: toxicity; settings: read-out: Selectivity Index
Candida albicans [31] = experiment: Antifungal activity against fluconazole/ITC-susceptible Candida albicans ATCC MYA-2310 measured after 48 hrs by CLSI M27-A3 protocol based method; assay type: functional; settings: ATCC MYA-2310, 48 h
[32] = Selectivity index, ratio of compound concentration showing <20 to <30% hemolysis in mouse RBC to MIC for Candida parapsilosis ATCC 22019; assay type: toxicity; settings: mouse red blood cells (RBC), read-out: Selectivity Index
[33] = Selectivity index, ratio of compound concentration showing <20 to <30% hemolysis in mouse RBC to MIC for Candida glabrata ATCC 2001; assay type: toxicity; settings: mouse red blood cells (RBC), read-out: Selectivity Index
[34] = Selectivity index, ratio of compound concentration showing <20 to <30% hemolysis in mouse RBC to MIC for fluconazole/ITC-susceptible Candida albicans ATCC MYA-2310; assay type: toxicity; settings: mouse red blood cells (RBC), read-out: Selectivity Index
[35] = Selectivity index, ratio of compound concentration showing <20 to <30% hemolysis in mouse RBC to MIC for fluconazole/ITC-resistant Candida albicans ATCC MYA-1003; assay type: toxicity; settings: mouse red blood cells (RBC), read-out: Selectivity Index
[36] = Hemolytic activity in mouse RBC at […] ug/ml after 1 hr relative to control; assay type: ADME, cell-based, Erythrocyte; settings: red blood cells (erythrocytes), read-out: Activity
[37] = Hemolytic activity in mouse RBC at 31.3 ug/ml after 1 hr relative to control; assay type: ADME, cell-based, Erythrocyte; settings: red blood cells (erythrocytes), read-out: Activity
Listeria monocytogenes = experiment: Antibacterial activity against Listeria monocytogenes; assay type: functional, organism-based
[38] = Selectivity index, ratio of CC50 for human A549 cells to MIC for Aspergillus terreus ATCC MYA-3633; assay type: toxicity; settings: read-out: Selectivity Index
[39] = Selectivity index, ratio of CC50 for human A549 cells to MIC for fluconazole/ITC-resistant Candida albicans ATCC 64124; assay type: toxicity; settings: read-out: Selectivity Index
Staphylococcus aureus = experiment: Antibacterial activity against methicillin-resistant Staphylococcus aureus; assay type: functional, organism-based
[40] = Hemolytic activity in mouse RBC at 62.5 ug/ml after 1 hr relative to control; assay type: ADME, cell-based, Erythrocyte; settings: red blood cells (erythrocytes), read-out: Activity
[41] = Selectivity index, ratio of CC50 for human A549 cells to MIC for fluconazole/ITC-susceptible Candida albicans ATCC MYA-2876; assay type: toxicity; settings: read-out: Selectivity Index

Voltage-gated inwardly rectifying potassium channel KCNH2, sequence (Q12809 whole entry): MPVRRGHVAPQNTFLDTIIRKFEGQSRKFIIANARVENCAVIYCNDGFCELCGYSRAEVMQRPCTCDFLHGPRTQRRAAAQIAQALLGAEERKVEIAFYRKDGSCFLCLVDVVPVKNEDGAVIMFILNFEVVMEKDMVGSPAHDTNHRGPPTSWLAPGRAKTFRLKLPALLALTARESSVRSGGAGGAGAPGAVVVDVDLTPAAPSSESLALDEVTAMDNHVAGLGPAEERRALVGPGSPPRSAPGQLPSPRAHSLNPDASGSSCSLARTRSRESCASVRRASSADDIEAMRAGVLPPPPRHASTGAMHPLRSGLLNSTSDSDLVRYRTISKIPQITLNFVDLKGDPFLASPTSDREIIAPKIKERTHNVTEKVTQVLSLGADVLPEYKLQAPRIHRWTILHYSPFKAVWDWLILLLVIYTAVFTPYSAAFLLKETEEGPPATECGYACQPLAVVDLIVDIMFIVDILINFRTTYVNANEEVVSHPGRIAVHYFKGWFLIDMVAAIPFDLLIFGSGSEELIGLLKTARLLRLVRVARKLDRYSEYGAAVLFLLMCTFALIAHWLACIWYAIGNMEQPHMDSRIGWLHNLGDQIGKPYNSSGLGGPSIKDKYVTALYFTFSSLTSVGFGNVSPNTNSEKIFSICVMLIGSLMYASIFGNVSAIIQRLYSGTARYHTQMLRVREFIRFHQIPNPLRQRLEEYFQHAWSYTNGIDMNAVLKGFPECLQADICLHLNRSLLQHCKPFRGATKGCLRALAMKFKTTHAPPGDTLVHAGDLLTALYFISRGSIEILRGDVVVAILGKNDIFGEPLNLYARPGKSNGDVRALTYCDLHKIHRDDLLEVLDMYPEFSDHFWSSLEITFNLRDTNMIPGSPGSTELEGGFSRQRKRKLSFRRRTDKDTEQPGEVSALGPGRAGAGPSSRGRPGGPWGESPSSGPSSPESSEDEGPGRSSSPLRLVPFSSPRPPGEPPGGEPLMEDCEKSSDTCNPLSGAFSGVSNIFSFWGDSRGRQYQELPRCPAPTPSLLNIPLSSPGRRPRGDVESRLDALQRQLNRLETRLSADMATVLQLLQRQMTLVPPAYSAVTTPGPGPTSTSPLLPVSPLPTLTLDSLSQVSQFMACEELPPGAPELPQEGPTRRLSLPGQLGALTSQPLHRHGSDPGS

Fc1ccc(N/N=C/c2ccc(-c3cccc(/C=N/Nc4ccc(F)cc4)c3)cc2)cc1
selectivity ratio [1]: 4
MIC (Aspergillus flavus): 15.6 µg/mL (≈ 36.6 µM)
IC50 [2]: > 30 µM
selectivity ratio [3]: 2
MIC (Aspergillus terreus): > 31.3 µg/mL
selectivity ratio [4]: 16
hemolysis at 1 h, […] [5]: 0.1%
MIC (Candida parapsilosis): 31.3 µg/mL (≈ 73.4 µM)
selectivity ratio [6]: 1
selectivity ratio [7]: 1 to 32
selectivity ratio [8]: 1 to 32
CC50 (A549): > 31 µg/mL
MIC (Candida albicans [9]): 15.6 µg/mL (≈ 36.6 µM)
MIC (Aspergillus nidulans): 3.9 µg/mL (≈ 9.14 µM)
hemolysis at 1 h, 3.9 ug/ml [10]: 4.3%
selectivity ratio [11]: 1 to 32
CC50 (BEAS-2B): > 31 µg/mL
MIC (Candida albicans [12]): 1.95 to 3.9 µg/mL (≈ 4.57 to 9.14 µM)
selectivity ratio [13]: 1
selectivity ratio [14]: 1
selectivity ratio [15]: 1
hemolysis at 1 h, 1.95 ug/ml [16]: 6%
selectivity ratio [17]: 1 to 32
MIC (Pichia kudriavzevii): > 31.3 µg/mL
selectivity ratio [18]: 1 to 32
Activity (Enterococcus): inactive
MIC (Nakaseomyces glabratus): > 31.3 µg/mL
MIC (Candida albicans [19]): > 31.3 µg/mL
selectivity ratio [20]: 8
selectivity ratio [21]: 1 to 32
selectivity ratio [22]: 2
selectivity ratio [23]: 1 to 32
MIC (Candida albicans [24]): 7.8 µg/mL (≈ 18.3 µM)
selectivity ratio [25]: 1 to 32
hemolysis at 1 h, 7.8 ug/ml [26]: 9.5%
MIC (Candida albicans [27]): 3.9 µg/mL (≈ 9.14 µM)
selectivity ratio [28]: 1 to 32
MIC (Candida albicans [29]): 15.6 µg/mL (≈ 36.6 µM)
selectivity ratio [30]: 8
MIC (Candida albicans [31]): 7.8 µg/mL (≈ 18.3 µM)
selectivity ratio [32]: 1 to 32
selectivity ratio [33]: 1 to 32
selectivity ratio [34]: 1 to 32
selectivity ratio [35]: 1 to 32
hemolysis at 1 h, 15.6 ug/ml ([36]; at 15.6 µg/mL): 9.9%
hemolysis at 1 h, 0.975 ug/ml [36]: 0%
hemolysis at 1 h, 31.3 ug/ml [37]: 14.4%
Activity (Listeria monocytogenes): inactive
selectivity ratio [38]: 1
selectivity ratio [39]: 2
Activity (Staphylococcus aureus): inactive
hemolysis at 1 h, 62.5 ug/ml [40]: 26.1%
selectivity ratio [41]: 4
